According to patent US8648116B2, “Derivatives of N-(arylamino) sulfonamides including polymorphs as inhibitors of MEK as well as compositions, methods of use and methods for preparing the same” (Ardea Biosciences, Inc., priority 2005, dated 2014):
Where “and” joins values, the source holds several entries; their conditions need not be identical. Equal entries are not always repeated.

System: MDA pERK
Assay: MDA pERK ELISA
Assay type: cell-based
Conditions: not given

Row | SMILES | EC50 [nM]
1 | COC(=O)c1sccc1S(=O)(=O)Nc1ccc(F)c(F)c1Nc1ccc(I)cc1F [Example 0620926] | > 200
2 | O=S(=O)(Nc1ccc(F)c(F)c1Nc1ccc(-c2cn[nH]c2)cc1F)C1CC1 [Example 0497618] | > 200
3 | CS(=O)(=O)Nc1ccc(-c2ccc(Nc3c(NS(=O)(=O)C4CC4)ccc(F)c3F)c(F)c2)cc1 [Example 0499271] | > 200
4 | CCN(C)CCS(=O)(=O)Nc1ccc(F)c(F)c1Nc1ccc(I)cc1F [Example 0621029] | 100 to 200
5 | O=S(=O)(Nc1ccc(F)c(F)c1Nc1ccc(-c2ccccc2)cc1F)C1CC1 [Example 0497692] | > 200
6 | O=S(=O)(Nc1ccc(F)c(F)c1Nc1ccc(I)cc1F)c1ccc(-c2nsc(Cl)n2)s1 [Example 0530701] | 100 to 200
7 | O=S(=O)(Nc1ccc(F)c(F)c1Nc1ccc(I)cc1F)c1ccsc1 [Example 0620927] | 15 to 100
8 | CC(=O)c1cccc(-c2ccc(Nc3c(NS(=O)(=O)C4CC4)ccc(F)c3F)c(F)c2)c1 [Example 0499266] | > 200
9 | O=S(=O)(Nc1ccc(F)c(F)c1Nc1ccc(-c2cc[nH]n2)cc1F)C1CC1 [Example 0497654] | 100 to 200
10 | CNCCS(=O)(=O)Nc1ccc(F)c(F)c1Nc1ccc(I)cc1F [Example 0621002] | 15 to 100

System: phosphorylated ERK in MDA-MB-231 breast cancer cells
Assay: Generation of EC50 data: Western blotting for phosphorylated ERK in EGF-stimulated cells
Assay type: cell-based
Conditions: EC50 class
Description: Effects of compounds in the cell were determined by Western blotting for phosphorylated ERK. MDA-MB-231 breast cancer cells were plated in a 48 well plate at 20,000 cells per well and grown in a 37° humidified CO2 incubator. The following day, the growth media (DMEM+10% fetal bovine serum) was removed and replaced with starve media (DMEM+0.1% fetal bovine serum). Cells were incubated in the starve media for sixteen hours and then treated with a range of compound concentrations for thirty minutes. After incubation with compound, cells were stimulated with 100 ng/ml EGF for five minutes. The cells were then lysed and analyzed by Western blot using a monoclonal antibody raised to phosphorylated ERK. The signal was amplified using a secondary antibody conjugated to a near-IR dye and detected on a Licor Odyssey scanner.

Row | SMILES | EC50 [nM]
11 | COc1cc(F)c(F)c(Nc2ccc(I)cc2F)c1NS(=O)(=O)C1(C[C@@H](O)CO)CC1 [Eg. 99 (R isomer), N—(R)-(3,4-difluoro-2-(2-fluoro-4-iodophenylamino)-6-methoxyphenyl)-1-(2,3-dihydroxypropyl)cyclopropane-1-sulfonamide] | 2 to 15
12 | COc1cc(F)c(F)c(Nc2ccc(I)cc2F)c1NS(=O)(=O)C1(C[C@H](O)CO)CC1 [Eg. 98 (S isomer)] | < 2
13 | COc1cc(F)c(F)c(Nc2ccc(I)cc2F)c1NS(=O)(=O)C1(CC(O)CO)CC1 (racemic) [Eg. 97 (Racemic), N-(3,4-difluoro-2-(2-fluoro-4-iodophenylamino)-6-methoxyphenyl)-1-(2,3-dihydroxypropyl)cyclopropane-1-sulfonamide] | < 2

Same assay, conditions: Homo sapiens; EC50 classes per legend (pERK, MDA-MB-231 cells); classes D and F also cite IC50

Row | SMILES | EC50 [nM]
14 | O=S(=O)(Nc1c(F)cc(F)c(F)c1Nc1ccc(I)cc1F)C1(C[C@H](O)CO)CC1 [Example 1023] | 2 to 15
15 | CC(C)(C)S(=O)(=O)Nc1ccc(F)c(F)c1Nc1ccc(I)cc1F [Example 1009] | 15 to 100
16 | O=S(=O)(Nc1c(F)cc(F)c(F)c1Nc1ccc(I)cc1F)C1CC1 [Example 1004] | 15 to 100
17 | CS(=O)(=O)Nc1ccc(F)c(F)c1Nc1ccc(I)cc1F [Example 1000] | < 2
18 | CCc1cc(F)c(F)c(Nc2ccc(I)cc2F)c1NS(=O)(=O)C1(CC(O)CO)CC1 (stereo not drawn) [Example 1029] | 15 to 100
19 | O=S(=O)(Nc1ccc(F)c(F)c1Nc1ccc(I)cc1F)C1(CCO)CC1 [Example 1027] | < 2
20 | COc1cc(F)c(F)c(Nc2ccc(I)cc2F)c1NS(=O)(=O)C1(CC(CO)CO)CC1 [Example 1028] | < 2
21 | Cc1cc(I)ccc1Nc1c(NS(=O)(=O)C2CC2)ccc(F)c1F [Example 1017] | 2 to 15
22 | O=S(=O)(Nc1ccc(F)c(F)c1Nc1ccc(I)cc1F)C1CC1 [Example 1001] | < 2
23 | CCCCS(=O)(=O)Nc1ccc(F)c(F)c1Nc1ccc(I)cc1F [Example 1003] | 15 to 100
24 | COc1cc(F)c(F)c(Nc2ccc(I)cc2F)c1NS(=O)(=O)C1CCC1 [Example 1025] | 2 to 15
25 | O=S(=O)(Nc1ccc(F)c(F)c1Nc1ccc(I)cc1F)c1cccs1 [Example 1005] | 15 to 100
26 | COc1cc(F)c(F)c(Nc2ccc(I)cc2F)c1NS(=O)(=O)C1(C[C@@H](O)CO)CC1 [Example 1022] | 2 to 15
27 | O=S(=O)(Nc1ccc(F)c(F)c1Nc1ccc(I)cc1F)c1ccccc1F [Example 1015] | > 100
28 | O=S(=O)(Nc1ccc(F)c(F)c1Nc1ccc(I)cc1F)C1CCCCC1 [Example 1008] | 15 to 100
29 | COc1cc(F)c(F)c(Nc2ccc(I)cc2F)c1NS(=O)(=O)C1(CC(O)CO)CC1 (racemic) [Example 1019] | < 2

Row | SMILES | EC50 [nM]
30 | O=S(=O)(Nc1ccc(F)c(F)c1Nc1ccc(I)cc1F)c1ccco1 [Example 1006] | 15 to 100
31 | O=S(=O)(Nc1ccc(F)c(F)c1Nc1ccc(I)cc1F)C1(CC(O)CO)CC1 (racemic) [Example 1018] | < 2
32 | CC(C)S(=O)(=O)Nc1ccc(F)c(F)c1Nc1ccc(I)cc1F [Example 1002] | 2 to 15
33 | O=S(=O)(Nc1ccc(F)c(F)c1Nc1ccc(I)cc1F)c1ccsc1 [Example 1016] | 15 to 100
34 | O=S(=O)(Nc1c(F)cc(F)c(F)c1Nc1ccc(I)cc1F)C1(CC(O)CO)CC1 (racemic) [Example 1020] | < 2
35 | COc1cc(F)c(F)c(Nc2ccc(I)cc2F)c1NS(=O)(=O)C1(CCO)CC1 [Example 1026] | < 2
36 | O=S(=O)(Nc1c(F)cc(F)c(F)c1Nc1ccc(I)cc1F)C1(C[C@@H](O)CO)CC1 [Example 1024] | 2 to 15
37 | O=S(=O)(Nc1ccc(F)c(F)c1Nc1ccc(I)cc1F)C1CCCC1 [Example 1007] | 15 to 100
38 | COc1cc(F)c(F)c(Nc2ccc(C)cc2C)c1NS(C)(=O)=O [Example 1010] | < 2
39 | O=S(=O)(Nc1ccc(F)c(F)c1Nc1ccc(I)cc1F)c1ccccc1 [Example 1014] | 15 to 100
40 | COc1cc(F)c(F)c(Nc2ccc(I)cc2F)c1NS(=O)(=O)C1CC1 [Example 1013] | 2 to 15
41 | COCCOc1cc(F)c(F)c(Nc2ccc(I)cc2F)c1NS(=O)(=O)C1(CC(O)CO)CC1 (stereo not drawn) [Example 1030] | 15 to 100
42 | CC1(S(=O)(=O)Nc2ccc(F)c(F)c2Nc2ccc(I)cc2F)CC1 [Example 1012] | 2 to 15
43 | Cc1ccc(S(=O)(=O)Nc2ccc(F)c(F)c2Nc2ccc(I)cc2F)s1 [Example 1011] | 15 to 100
44 | COc1cc(F)c(F)c(Nc2ccc(I)cc2F)c1NS(=O)(=O)C1(C[C@H](O)CO)CC1 [Example 1021] | < 2

System: orthotopic Hep3B2.1-7 human hepatic carcinoma
Assay: Growth response of orthotopic Hep3B tumors in nude mice
Assay type: in vivo, BALB/c nu/nu mice
Conditions: 5FU 75 mg/kg i.v. Day 0, 7 and 14
Description: (§1) Female BALB/c nu/nu mice (University of Adelaide, Waite Campus, SA, Australia), aged 10-14 weeks, with a body weight range: of 19.1-29.94 g (mean 22.95 g) were used for the study. The mice were divided into 6 Study groups (4 treatment groups and 2 control groups) as follows: • Number of Mice per Group: 10 in Groups 1 to 5 inclusive • 15 in ‘Take-Rate’ Control Group (Group 6)
Hep3B human hepatic carcinoma cells (Passage 2 from working stock VP-Stock 353) were cultured in RPMI1640 cell culture medium, which was supplemented with 10% FBS and penicillin-streptomycin (501 U/mL final concentration). The cells were harvested by trypsinisation, washed twice in HBSS and counted. The cells were then resuspended in HBSS:Matrigel (1:1, v/v) and adjusted to a final volume containing 1×10^8 cells/mL. Prior to inoculation, the incision site was liberally swabbed with alcohol and an incision made through the abdominal wall to expose the liver. The needle was introduced through the surface of the liver where 10 μL of cells (1×10^6 cells) were discharged. The needle was held in this position for approximately 30 seconds to allow the Matrigel® to polymerize in order to avoid leakage of tumor cells into the abdominal cavity.
Treatment commenced 14 days post-inoculation. On Day 7 of the study (21 days post-inoculation), all mice from the ‘Take-Rate’ control group were culled and the livers visually assessed for the presence of tumors.
A stock solution was prepared weekly and stored at 4° C. Dosing solutions were prepared on each day of administration. […] The compound was administered at doses of 2, 10 and 50 mg/kg.
Liver and tumor wet weight were measured when each were excised post-mortem on the termination day of the study. At the termination of the study, livers were excised from all mice in each study group and weighed. The number of visible tumors, if present, was counted. These tumors were removed from the liver and weighed.
A One-Way Analysis of Variance (ANOVA) (All Pairwise Multiple Comparison Procedure and Multiple Comparison versus Control Group) was performed on liver weight and tumor weight data at the end of the study. […] The same statistical analyses were performed on the data for the tumor-bearing mice in the study.

Row | SMILES | No. of Mice with Tumors (out of 10)
45 | O=c1[nH]cc(F)c(=O)[nH]1 [5-Fluorouracil, reference compound] | 4

Same assay, conditions: 5FU 75 mg/kg i.v. Day 0, 7 and 14, tumor-bearing mice

Row | SMILES | Average Liver Weight [g] | Average Tumor Weight [g]
46 | O=c1[nH]cc(F)c(=O)[nH]1 [5-Fluorouracil, reference compound] | 1.217 | 0.143

Same assay, conditions: tumor-bearing mice, 75 mg/kg i.v. once per week

Row | SMILES | average weight of the tumors vs Vehicle Control
47 | O=c1[nH]cc(F)c(=O)[nH]1 [5-Fluorouracil, reference compound] | significantly different

Same assay, conditions: tumor-bearing mice, 75 mg/kg i.v. once per week; p<0.05

Row | SMILES | average weight of the liver vs Vehicle Control
48 | O=c1[nH]cc(F)c(=O)[nH]1 [5-Fluorouracil, reference compound] | significantly different

System: orthotopic HT-29 human colorectal adenocarcinoma
Assay: Growth response of orthotopic HT-29 colon tumors in nude mice
Assay type: in vivo, BALB/c nu/nu mice
Conditions: 75 mg/kg i.v. once per week
Description: as §1, with “7-12” for “10-14”, “16.58-25.39” for “19.1-29.94”, “21.52” for “22.95”, “9” for “15”
HT-29 human colorectal adenocarcinoma cells (Passage 4 from working stock VP-Stock 325) were cultured in RPMI1640 cell culture medium, which was supplemented with 10% FBS and penicillin-streptomycin (501 U/mL final concentration). The cells were harvested by trypsinisation, washed twice in HBSS and counted. The cells were then resuspended in HESS and adjusted to a final volume containing 2×10^8 cells/mL. Prior to inoculation, the incision site was liberally swabbed with alcohol and an incision made through the abdominal wall to expose the caecum wall. The needle was introduced through the surface of the caecum wall where 5 μL of cells (1×10^6 cells) were discharged.
A stock solution was prepared weekly and stored at 4° C. Dosing solutions were prepared on each day of administration.
Caecum and tumor wet weight were measured when each were excised post-mortem on the termination day of the study. At the termination of the study, the caecum was excised from all mice in each study group and weighed with the tumors intact. The tumors were then excised from the caecum and weighed.
A two-sample t-test was used to determine the significance in body weight change within a treatment group between Day 0 and the termination day of the study. […] In these groups, a two-sample t-test was used to determine the significance in body weight change within a treatment group between Day 0 and the final treatment day of the study, and between the last treatment day and the termination day of the study.
A One-Way Analysis of Variance (ANOVA) (All Pairwise Multiple Comparison Procedure and Multiple Comparison versus Control Group) was performed on the caecum weight and tumor weight data at the end of the study.

Row | SMILES | weight of the caecum and HT-29 tumors
49 | O=c1[nH]cc(F)c(=O)[nH]1 [5-Fluorouracil, reference compound] | no effect

Same assay, conditions: 5FU 75 mg/kg, individual animals; listed as 5FU

Row | SMILES | Caecum Weight | Tumour Weight
50 | O=c1[nH]cc(F)c(=O)[nH]1 [5-Fluorouracil, reference compound] | 0.355 g and 0.199 g and 0.360 g and 0.284 g and 0.421 g and 0.706 g and 0.415 g and 0.327 g and 0.237 g and 0.377 g | 0.245 g and 0.001 g and 0.000 g (3×) and 0.010 g and 0.329 g and 0.130 g and 0.079 g and 0.003 g

Same assay, conditions: 5FU 75 mg/kg, mice surviving to final day

Row | SMILES | Average Caecum Weight [g] | Average Tumour Weight [g]
51 | O=c1[nH]cc(F)c(=O)[nH]1 [5-Fluorouracil, reference compound] | 0.391 | 0.069
